Results on 5 molecules are retold here after patent US9896730B2, “Use of EMT gene signatures in cancer drug discovery, diagnostics, and treatment” (OSI Pharmaceuticals, LLC, priority 2011, dated 2018).

“Also recorded” adds a separate entry of the source.

One assay concerns A549 cells. In words: 88 gene EMTGS qPCR, A549 cells treated with TNF and TAK1 siRNA. The format is cell-based, human. The conditions noted are these: relative to untreated cells. The procedure: (§1) Ligand-driven EMT models: NCI-H358 cells were cultured in RPMI medium (Gibco #21870) with 10% fetal bovine serum (Sigma), 1 mM sodium pyruvate (Gibco #11360), 2 mM L-glutamine (Gibco #25030) and 10 mM HEPES (Gibco #15630). For ligand treatment, cells were seeded in normal growth medium and stimulated the following day (Day 0) with 100 ng/ml HGF (Peprotech #100-39), 100 ng/ml OSM (R and D systems, 295-OM), 2.5 ng/ml TGFβ1 (EMD Biosciences #616450) or combinations of the three. Medium was changed and fresh ligand was added on day 4 and day 6 after stimulation, such that samples were stimulated with fresh ligand 24 hrs prior to RNA isolation. For analysis containing drug treatments, DMSO or Drug was added to the samples at time of ligand treatments. Samples were taken for RNA Day 1, Day 4 and Day 7. […]
(§2) Normalization genes used with 88 gene EMTGS for RT-PCR Analysis: The genes GTF2B, GAPDH, SDHA, and ACTB were chosen as normalization genes in qPCR analysis. […] The Delta Ct is then calculated as follows: Delta Ct=(Ct value of Gene X)−(Geometric mean of all normalization genes) For calculation of fold change between a control sample and a treated sample: Control sample=2^(−Delta Ct) Treated sample=2^(−Delta Ct) Fold change=Treated sample/Control sample Values below 1 (ratios) are converted to fold change by multiplying by −(1/X)
In general terms: Quantitative PCR measures a nucleic acid by following its amplification.

A further assay deals with lung tumors. Conditions: adenocarcinoma patients versus squamous cell carcinoma patients; cited from earlier work.
Assay [1] concerns advanced, treatment-refractory NSCLC. Conditions: Phase III, monotherapy, patients with advanced; cited from earlier work.
For assay [2], the system named is H358 cells. Description: Cell proliferation (Cell Titer Glo): erlotinib sensitivity in H358 EMT models. The conditions noted are these: ligand- and snai1-induced EMT. The format is cell-based, human. Here is the method:
(§3) Measurement of Cell Proliferation: Cell proliferation was determined using the Cell Titer Glo assay (Promega Corporation, Madison, Wis.). Cell lines were seeded at a density of 3000 cells per well in a 96-well plate. For assessment of drug effects on proliferation, 24 hours after plating, cells were dosed with varying concentrations of drug, either as a single agent or in combination. The signal for Cell Titer Glo was determined 72 hours after dosing.
as §1

Another assay concerns H1650 cells. In words: Cell proliferation (Cell Titer Glo): erlotinib sensitivity in H1650 EMT model. The format is cell-based, human. Conditions: H1650 cells in vitro, before or after EMT induction. Here is the method:
as §3, §1
(Cellular ATP, detected with luciferase, serves as a proxy for viable cell number.)

In assay [3] the test system is H358 cells. Description: 88 gene EMTGS qPCR and EMT characterization, ligand-driven H358 EMT model. Conditions: 7 day ligand stimulation. The format is cell-based, human. Here is the method:
as §1, with “7. NCI-H1650 and NCI-H292 cells were grown in RPM medium (Gibco #21870) with 10% fetal bovine serum (Sigma), 1 mM sodium pyruvate (Gibco #11360), 2 mM L-glutamine (Gibco #25030) and 10 mM HEPES (Gibco #15630). CFPAC1 cells (ATCC #CRL-1918) were cultured in DMEM (Gibco #11960) supplemented with 10% FBS (Sigma), 2 mM L-glutamine (Gibco #25030). A549 cells were cultured in MEM with 10% fetal bovine serum, 2 mM L-glutamine and 1 mM sodium pyruvate. Cells were treated with ligand for 7 days and harvested as described for NCI-H358 cells in [249] unless otherwise noted.” for “7.”
as §2

In the case of TNFa, in the assay on A549 cells, the “effect on epithelial genes of 88 gene EMTGS” value is on record as “downregulation” and the “effect on mesenchymal genes of 88 gene EMTGS” value is on record as “upregulation”.

For `C#Cc1cccc(Nc2ncnc3cc(OCCOC)c(OCCOC)cc23)c1` [erlotinib, [6,7-bis(2-methoxyethoxy)-4-quinazolin-4-yl]-(3-ethynylphenyl)amine], the clinical response result in the assay with lung tumors was “respond better”. Moreover, in assay [1], the disease progression result was “delayed disease progression”, the survival result is given as “significantly prolonged survival” and the “worsening of lung cancer-related symptoms” value is on record as “delayed worsening”. Moreover, the “sensitivity to erlotinib after EMT induction” value with H358 cells [2] was “decreased sensitivity; also recorded: decreases”. Further, in the assay on H1650 cells, the sensitivity to erlotinib entry is on record as “not sensitive”.

“TGFβ: transforming growth factor β, EMT-inducing ligand”: the “extent of EMT induced (morphology, biomarker, phenotypic changes)” value with H358 cells [3] is listed as “more advanced EMT”.

With “HGF: hepatocyte growth factor, EMT-inducing ligand”, the “extent of EMT induced (morphology, biomarker, phenotypic changes)” value in the assay on H358 cells [3] is recorded as “partial EMT”.

B1: OSM: oncostatin M, EMT-inducing ligand (protein, UniProt P13725 26-221, looked up)
Oncostatin-M: AAIGSCSKEYRVLLGQLQKQTDLMQDTSRLLDPYIRIQGLDVPKLREHCRERPGAFPSEETLRGLGRRGFLQTLNATLGCVLHRLADLEQRLPKAQDLERSGLNIEDLEKLQMARPNILGLRNNIYCMAQLLDNSDTAEPTKAGRGASQPPTPTPASDAFQRKLEGCRFLHGYHRFMHSVGRVFSKWGESPNRSRR
Turning to B1, in the assay on H358 cells [3], the “extent of EMT induced (morphology, biomarker, phenotypic changes)” value is reported as “partial EMT”.
